Experimental data as given in ChEMBL document CHEMBL1201862, “PubChem BioAssay data set” (2004).
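Interpolation was linear, between the two tested concentrations surrounding the appropriate level; five concentrations were tested over 48 hours in 96-well plates. GI50: concentration for 50% inhibition of growth.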 Activity calls are given as the source filed them. Cut-off read from the data, not from the text of the source: active = GI50 up to about 1.1 µM and inactive = higher.

Legend:
Assay in all cases: NCI tumour cell line growth inhibition, 48 h
SNB-75 = tested on: SNB-75
OVCAR-3 = tested on: OVCAR-3
HOP-92 = tested on: HOP-92
NCI-H460 = tested on: NCI-H460
A498 = tested on: A498
SK-OV-3 = tested on: SK-OV-3
ACHN = tested on: ACHN
786-0 = tested on: 786-0
MDA-N = tested on: MDA-N
DU-145 = tested on: DU-145
MOLT-4 = tested on: MOLT-4
OVCAR-4 = tested on: OVCAR-4
SF-539 = tested on: SF-539
IGROV-1 = tested on: IGROV-1
TK-10 = tested on: TK-10
HCT-15 = tested on: HCT-15
SNB-19 = tested on: SNB-19
A549 = tested on: A549
RPMI-8226 = tested on: RPMI-8226
HCT-116 = tested on: HCT-116
NCI/ADR-RES = tested on: NCI/ADR-RES
NCI-H226 = tested on: NCI-H226
OVCAR-8 = tested on: OVCAR-8
MCF7 = tested on: MCF7
UO-31 = tested on: UO-31
EKVX = tested on: EKVX
SN12C = tested on: SN12C
UACC-257 = tested on: UACC-257
MDA-MB-435 = tested on: MDA-MB-435
OVCAR-5 = tested on: OVCAR-5
HT-29 = tested on: HT-29
SK-MEL-2 = tested on: SK-MEL-2
Hs-578T = tested on: Hs-578T
BT-549 = tested on: BT-549
SW-620 = tested on: SW-620
SK-MEL-5 = tested on: SK-MEL-5
T47D = tested on: T47D
HOP-62 = tested on: HOP-62
UACC-62 = tested on: UACC-62
SF-268 = tested on: SF-268
U-251 = tested on: U-251
KM12 = tested on: KM12
NCI-H23 = tested on: NCI-H23
SK-MEL-28 = tested on: SK-MEL-28
MDA-MB-231 = tested on: MDA-MB-231
SF-295 = tested on: SF-295
RXF 393 = tested on: RXF 393
HCC 2998 = tested on: HCC 2998
COLO 205 = tested on: COLO 205
M14 = tested on: M14
NCI-H522 = tested on: NCI-H522
HL-60 = tested on: HL-60
Malme-3M = tested on: Malme-3M
PC-3 = tested on: PC-3
K562 = tested on: K562
SR = tested on: SR
CCRF-CEM = tested on: CCRF-CEM
CAKI-1 = tested on: CAKI-1
LOX IMVI = tested on: LOX IMVI

`O=C(Cc1ccccc1)NN1C(=O)/C(=C\c2ccccc2O)S/C1=N\c1ccccc1` was tested, and the GI50 (SNB-75) was > 100 µM (inactive), the GI50 (OVCAR-3) was > 100 µM (inactive) and the GI50 (HOP-92) was 39.3 µM (inactive). The GI50 (NCI-H460) was > 100 µM (inactive), the GI50 (A498) was > 100 µM (inactive) and the GI50 (SK-OV-3) was > 100 µM (inactive). For the same compound, the GI50 (ACHN) was > 100 µM (inactive), the GI50 (786-0) was > 100 µM (inactive) and the GI50 (MDA-N) was > 100 µM (inactive). The GI50 (DU-145) was > 100 µM (inactive), the GI50 (MOLT-4) was > 100 µM (inactive) and the GI50 (OVCAR-4) was > 100 µM (inactive). For the same compound, the GI50 (SF-539) was > 100 µM (inactive), the GI50 (IGROV-1) was > 100 µM (inactive) and the GI50 (TK-10) was > 100 µM (inactive). For the same compound, the GI50 (HCT-15) was over 100 µM, the GI50 (SNB-19) was > 100 µM (inactive) and the GI50 (A549) was > 100 µM (inactive). The GI50 (RPMI-8226) was > 100 µM (inactive), the GI50 (HCT-116) was > 100 µM (inactive) and the GI50 (NCI/ADR-RES) was > 100 µM (inactive). The GI50 (NCI-H226) was > 100 µM (inactive), the GI50 (OVCAR-8) was > 100 µM (inactive) and the GI50 (MCF7) was > 100 µM (inactive). For the same compound, the GI50 (UO-31) was > 100 µM (inactive), the GI50 (EKVX) was > 100 µM (inactive) and the GI50 (SN12C) was > 100 µM (inactive). The GI50 (UACC-257) was > 100 µM (inactive), the GI50 (MDA-MB-435) was > 100 µM (inactive) and the GI50 (OVCAR-5) was > 100 µM (inactive). For the same compound, the GI50 (HT-29) was > 100 µM (inactive), the GI50 (SK-MEL-2) was > 100 µM (inactive) and the GI50 (Hs-578T) was > 100 µM (inactive). The GI50 (BT-549) was > 100 µM (inactive), the GI50 (SW-620) was > 100 µM (inactive) and the GI50 (SK-MEL-5) was > 100 µM (inactive). For the same compound, the GI50 (T47D) was > 100 µM (inactive), the GI50 (HOP-62) was > 100 µM (inactive) and the GI50 (UACC-62) was > 100 µM (inactive). For the same compound, the GI50 (SF-268) was > 100 µM (inactive), the GI50 (U-251) was > 100 µM (inactive) and the GI50 (KM12) was > 100 µM (inactive). The GI50 (NCI-H23) was > 100 µM (inactive), the GI50 (SK-MEL-28) was > 100 µM (inactive) and the GI50 (MDA-MB-231) was > 100 µM (inactive). The GI50 (SF-295) was > 100 µM (inactive), the GI50 (RXF 393) was > 100 µM (inactive) and the GI50 (HCC 2998) was > 100 µM (inactive). For the same compound, the GI50 (COLO 205) was > 100 µM (inactive) and the GI50 (M14) was > 100 µM (inactive).
In the case of `CC(C)CC(=O)NC(Nc1ccc(S(=O)(=O)Nc2ncccn2)cc1)(C(F)(F)F)C(F)(F)F`, the GI50 (SNB-75) is reported as > 100 µM (inactive), the GI50 (OVCAR-3) is reported as > 100 µM (inactive) and the GI50 (HOP-92) is reported as > 100 µM (inactive). The GI50 (NCI-H460) was > 100 µM (inactive), the GI50 (SK-OV-3) was > 100 µM (inactive) and the GI50 (ACHN) was > 100 µM (inactive). The GI50 (NCI-H522) was > 100 µM (inactive), the GI50 (HL-60) was > 100 µM (inactive) and the GI50 (786-0) was > 100 µM (inactive). The GI50 (MDA-N) was > 100 µM (inactive), the GI50 (DU-145) was > 100 µM (inactive) and the GI50 (MOLT-4) was > 100 µM (inactive). For the same compound, the GI50 (OVCAR-4) was > 100 µM (inactive), the GI50 (SF-539) was > 100 µM (inactive) and the GI50 (IGROV-1) was > 100 µM (inactive). For the same compound, the GI50 (HCT-15) was over 100 µM, the GI50 (SNB-19) was > 100 µM (inactive) and the GI50 (A549) was > 100 µM (inactive). The GI50 (RPMI-8226) was > 100 µM (inactive), the GI50 (HCT-116) was > 100 µM (inactive) and the GI50 (NCI/ADR-RES) was > 100 µM (inactive). The GI50 (Malme-3M) was > 100 µM (inactive), the GI50 (NCI-H226) was > 100 µM (inactive) and the GI50 (OVCAR-8) was > 100 µM (inactive). For the same compound, the GI50 (UO-31) was > 100 µM (inactive), the GI50 (EKVX) was > 100 µM (inactive) and the GI50 (SN12C) was > 100 µM (inactive). For the same compound, the GI50 (UACC-257) was > 100 µM (inactive), the GI50 (MDA-MB-435) was > 100 µM (inactive) and the GI50 (OVCAR-5) was > 100 µM (inactive). The GI50 (HT-29) was > 100 µM (inactive), the GI50 (PC-3) was > 100 µM (inactive) and the GI50 (SK-MEL-2) was > 100 µM (inactive). For the same compound, the GI50 (Hs-578T) was > 100 µM (inactive), the GI50 (BT-549) was > 100 µM (inactive) and the GI50 (K562) was > 100 µM (inactive). The GI50 (SW-620) was > 100 µM (inactive), the GI50 (SK-MEL-5) was > 100 µM (inactive) and the GI50 (T47D) was > 100 µM (inactive). For the same compound, the GI50 (HOP-62) was > 100 µM (inactive), the GI50 (SR) was > 100 µM (inactive) and the GI50 (UACC-62) was > 100 µM (inactive). For the same compound, the GI50 (SF-268) was > 100 µM (inactive), the GI50 (U-251) was > 100 µM (inactive) and the GI50 (KM12) was > 100 µM (inactive). For the same compound, the GI50 (NCI-H23) was > 100 µM (inactive), the GI50 (CCRF-CEM) was > 100 µM (inactive) and the GI50 (SK-MEL-28) was > 100 µM (inactive). The GI50 (MDA-MB-231) was > 100 µM (inactive), the GI50 (SF-295) was > 100 µM (inactive) and the GI50 (RXF 393) was 20.4 µM (inactive). The GI50 (HCC 2998) was > 100 µM (inactive), the GI50 (COLO 205) was > 100 µM (inactive) and the GI50 (CAKI-1) was > 100 µM (inactive). The GI50 (LOX IMVI) was > 100 µM (inactive) and the GI50 (M14) was > 100 µM (inactive).
